Reference: patent publication US7179825B2, “Retinoic acid mimetic anilides” (Janssen Pharmaceutica N.V., priority 1997, dated 2007)

Each compound was assayed on Ovariectomized rats (assay: Vaginal keratinization test on ovariectomized rats (Example C.2)). Conditions: estradiol undecylate induced keratinization, per os once daily on days 1-3, active dose = 50% of rats show complete suppression.
Format: in vivo
Excerpt: The property to delay the metabolism of retinoic acid can be evidenced in various in vitro and in vivo experiments. A particular in vitro procedure is described in example C.1 and tests the inhibitory activity of the compounds of formula (I) on the metabolism of retinoic acid in human breast cancer cells. The compounds of the present invention were also effective in suppressing induced vaginal keratinization effects in ovariectomized rats as is described in example C.2.
“Vaginal Keratinization Test on Ovariectomized Rats”
Ovariectomized rats were injected subcutaneously with a sesame oil solution containing 100 μg of estradiol undecylate in a volume of 0.1 ml per 100 g body weight and control animals were injected with sesame oil. On day one, two and three, test animals were treated once daily with a per os dose of the test compound and control animals with the drug vehicle (PEG 200). One day after the last treatment, the animals were sacrificed and their vaginas were processed for histological evaluation according to the method described in J. Pharmacol. Exp. Ther. 261(2), 773–779 (1992). A dose at which 50% of the tested rats show complete suppression of the estradiol undecylate induced keratinization effects is defined as an active dose. Table 23 lists the lowest active dose (LAD in mg/kg) of the compounds of formula (I) which were tested.

| Structure (SMILES) | LAD (lowest active dose) |
| --- | --- |
| COc1cc(CC(=O)Nc2ccc(C(C(C)N(C)C)n3ccnc3)cc2)ccc1Cl (single isomer, unassigned) [Compound 310] | 2.50 mg/kg |
| COc1ccc(CC(=O)Nc2ccc(C(C(C)N(C)C)n3ccnc3)cc2)cc1C (single isomer, unassigned) [Compound 312] | >2.50 mg/kg |
| COc1cc(CC(=O)Nc2ccc(C(C(C)N(C)C)n3ccnc3)cc2)ccc1C (single isomer, unassigned) [Compound 314] | >2.50 mg/kg |
| COc1cc(CC(=O)Nc2ccc(C(C(C)N(C)C)n3ccnc3)cc2)ccc1C (single isomer, unassigned) [Compound 315] | >2.50 mg/kg |
| CC(C(c1ccc(NC(=O)Cc2ccc(N(C)C)cc2)cc1)n1ccnc1)N(C)C (single isomer, unassigned) [Compound 317] | >5.00 mg/kg |
| COc1ccc(CC(=O)Nc2ccc(C(C(C)N(C)C)n3ccnc3)cc2)cc1OC (single isomer, unassigned) [Compound 318] | >2.50 mg/kg |
| CCCCOc1ccc(CC(=O)Nc2ccc(C(C(C)N(C)C)n3ccnc3)cc2)cc1 (single isomer, unassigned) [Compound 319] | >5.00 mg/kg |
| CCCCOc1ccc(CC(=O)Nc2ccc(C(C(C)N(C)C)n3ccnc3)cc2)cc1 (single isomer, unassigned) [Compound 320] | 5.00 mg/kg |
| CC(C(c1ccc(NC(=O)Cc2ccc3c(c2)OCCO3)cc1)n1cncn1)N(C)C (single isomer, unassigned) [Compound 322] | >2.50 mg/kg |
| COc1ccc(C(=O)Nc2ccc(C(C(C)N(C)C)n3cncn3)cc2)cc1OC (single isomer, unassigned) [Compound 324] | >2.50 mg/kg |
| CC(C(c1ccc(NC(=O)Cc2ccc3c(c2)OCO3)cc1)n1cncn1)N(C)C (single isomer, unassigned) [Compound 325] | 2.50 mg/kg |
| COc1ccc(CCCC(=O)Nc2ccc(C(C(C)N(C)C)n3cncn3)cc2)cc1OC (single isomer, unassigned) [Compound 326] | >2.50 mg/kg |
| COc1ccc(C(=O)Nc2ccc(C(C(C)N(C)C)n3cncn3)cc2)cc1OC (single isomer, unassigned) [Compound 327] | >2.50 mg/kg |
| COc1ccc(CCC(=O)Nc2ccc(C(C(C)N(C)C)n3cncn3)cc2)cc1OC (single isomer, unassigned) [Compound 328] | >2.50 mg/kg |
| COc1ccc(CCCC(=O)Nc2ccc(C(C(C)N(C)C)n3cncn3)cc2)cc1OC (single isomer, unassigned) [Compound 329] | >2.50 mg/kg |
| CC(C(c1ccc(NC(=O)Cc2ccc3c(c2)OCCO3)cc1)n1cncn1)N(C)C (single isomer, unassigned) [Compound 333] | >2.50 mg/kg |
| CC(C(c1ccc(NC(=O)Cc2ccc3c(c2)OCO3)cc1)n1ccnc1)N(C)C (single isomer, unassigned) [Compound 337] | 2.50 mg/kg |
| CC(C(c1ccc(NC(=O)Cc2ccc3c(c2)OCCO3)cc1)n1ccnc1)N(C)C (single isomer, unassigned) [Compound 338] | >2.50 mg/kg |
| CC(C(c1ccc(NC(=O)Cc2ccc3c(c2)OCO3)cc1)n1ccnc1)N(C)C (single isomer, unassigned) [Compound 340] | 2.50 mg/kg |
| COc1ccc(C(=O)Nc2ccc(C(C(C)N(C)C)n3ccnc3)cc2)cc1OC (single isomer, unassigned) [Compound 341] | >2.50 mg/kg |
| COc1ccc(C(=O)Nc2ccc(C(C(C)N(C)C)n3ccnc3)cc2)cc1OC (single isomer, unassigned) [Compound 342] | >2.50 mg/kg |
| CC(C(c1ccc(NC(=O)Oc2ccccc2)cc1)n1ccnc1)N(C)C (single isomer, unassigned) [Compound 343] | >2.50 mg/kg |
